Experimental findings from ChEMBL document CHEMBL1201862, “PubChem BioAssay data set” (2004) are described below.

Among the test systems are SW-620; RXF 393; NCI-H23; UACC-62; UO-31; OVCAR-5; SF-539; HOP-62; SNB-75; A549; SNB-19; NCI-H226; EKVX; SF-268; OVCAR-8; SK-OV-3; COLO 205; A498; LOX IMVI.
Holding throughout (test): NCI tumour cell line growth inhibition, 48 h

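Tested at 5 concentrations; 48 h exposure; 96-well plates; endpoints linearly interpolated, else capped at highest concentration. GI50 is the concentration that inhibits growth by half.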 Activity calls are given as the source filed them. Cut-off read from the data, not from the text of the source: active = GI50 up to about 1.1 µM and inactive = higher.

As to `CO/C(=N\N=C\c1ccc(Cl)cc1)c1ccncc1`, the GI50 with SW-620, in the assay with RXF 393, with NCI-H23, with UACC-62, in the assay on UO-31 and in the assay on OVCAR-5 was > 100 µM (inactive) each time. The GI50 with SF-539 was > 100 µM (inactive); in the assay on HOP-62, > 100 µM (inactive); in the assay with SNB-75 it was 63 µM (inactive); with A549 it was > 100 µM (inactive); in the assay with SNB-19, > 100 µM (inactive); in the assay on NCI-H226, 59.7 µM (inactive). For the same compound, the GI50 with EKVX, in the assay on SF-268, with OVCAR-8, in the assay on SK-OV-3, in the assay on COLO 205 and with A498 was > 100 µM (inactive) each time.

Turning to `CC1CCN(c2cc(-c3cc4ccccc4o3)oc(=O)c2C#N)CC1`, the GI50 in the assay with SW-620 was > 100 µM (inactive); in the assay with RXF 393, 45.7 µM (inactive); in the assay with NCI-H23, > 100 µM (inactive); in the assay on UO-31 it was > 100 µM (inactive); in the assay on OVCAR-5, > 100 µM (inactive); with SF-539, 89.1 µM (inactive). Also, the GI50 in the assay with SNB-75, in the assay on LOX IMVI, with A549, in the assay on SNB-19, in the assay with NCI-H226 and in the assay on EKVX was > 100 µM (inactive) in each case. The GI50 in the assay with SF-268, with OVCAR-8, with COLO 205 and in the assay on A498 was > 100 µM (inactive) in each case.

For `Cc1ccc2c(c1-c1ccccc1)C(=O)OC2`, the GI50 is > 100 µM (inactive) in the assay with SW-620; > 100 µM (inactive) in the assay with RXF 393; > 100 µM (inactive) in the assay on NCI-H23; 28.7 µM (inactive) in the assay with UACC-62; 75 µM (inactive) in the assay on UO-31; > 100 µM (inactive) in the assay with HOP-62. Further, the GI50 in the assay on SNB-75 is > 100 µM (inactive); in the assay with A549, > 100 µM (inactive); in the assay on SNB-19, > 100 µM (inactive); with NCI-H226, > 100 µM (inactive); in the assay with EKVX, 17.1 µM (inactive); in the assay on SF-268, > 100 µM (inactive). The GI50 in the assay on OVCAR-8, with SK-OV-3, with COLO 205 and in the assay with A498 was > 100 µM (inactive) in each case.

For `Cc1cccc(NC(=O)C(=O)C(C(=O)c2ccccc2F)C2OC(=O)c3ccccc32)c1Cl` (stereo not drawn), the GI50 was 42.5 µM (inactive) in the assay on SW-620; 24.2 µM (inactive) in the assay with NCI-H23; 23.2 µM (inactive) with UACC-62; 37.2 µM (inactive) in the assay with UO-31; 60 µM (inactive) in the assay on OVCAR-5; 18.2 µM (inactive) with SF-539. Moreover, the GI50 is 37.4 µM (inactive) in the assay on HOP-62; 20.5 µM (inactive) in the assay on SNB-75; 17.7 µM (inactive) in the assay with LOX IMVI; 36.4 µM (inactive) with A549; 31.1 µM (inactive) with SNB-19; 32.4 µM (inactive) in the assay on NCI-H226. Moreover, the GI50 is 37.9 µM (inactive) in the assay on EKVX; 21.4 µM (inactive) in the assay with SF-268; 20.1 µM (inactive) in the assay on OVCAR-8; 37.2 µM (inactive) in the assay with SK-OV-3; 20 µM (inactive) in the assay with COLO 205; 60.7 µM (inactive) with A498.

Consider `CC(C)COC(=O)N1N=NC2C3CC(=O)C(O3)C21` (stereo not drawn), for which the GI50 in the assay with SW-620, with RXF 393, in the assay with NCI-H23, in the assay with UACC-62, in the assay on UO-31 and with OVCAR-5 was > 100 µM (inactive) throughout. The GI50 with SF-539, with HOP-62, in the assay with SNB-75, in the assay with LOX IMVI, in the assay on A549 and in the assay with SNB-19 was > 100 µM (inactive) in each case. Moreover, the GI50 with EKVX, with SF-268, in the assay with OVCAR-8, with SK-OV-3, in the assay on COLO 205 and with A498 was > 100 µM (inactive) throughout.

For the compound `CC/C=C\C/C=C\C/C=C\CCCCCCCC(=O)OCC`, the GI50 with SW-620, with NCI-H23, in the assay on UACC-62, in the assay on UO-31, in the assay on OVCAR-5 and in the assay with SF-539 was > 100 µM (inactive) in each case. The GI50 in the assay on HOP-62 is > 100 µM (inactive); in the assay on SNB-75, > 100 µM (inactive); in the assay with LOX IMVI, 42.6 µM (inactive); with A549, > 100 µM (inactive); in the assay on NCI-H226, > 100 µM (inactive); with EKVX, > 100 µM (inactive). Further, the GI50 in the assay on SF-268, in the assay with OVCAR-8, in the assay on SK-OV-3, in the assay on COLO 205 and in the assay with A498 was > 100 µM (inactive) throughout.

`C#CCOCn1cnc2ncnc(Cl)c21`: the GI50 in the assay with SW-620, with NCI-H23, in the assay with UACC-62, in the assay on UO-31, in the assay with OVCAR-5 and with SF-539 was > 100 µM (inactive) in each case. Moreover, the GI50 in the assay with HOP-62, with SNB-75, with LOX IMVI, with A549, with SNB-19 and in the assay on NCI-H226 was > 100 µM (inactive) each time. Besides, the GI50 with EKVX, in the assay on SF-268, with OVCAR-8, in the assay with SK-OV-3, in the assay with COLO 205 and with A498 was > 100 µM (inactive) throughout.

Take `S=P1(Oc2ccccc2)NNP2(=NP(N3CC3)(N3CC3)=NP(N3CC3)(N3CC3)=N2)NN1` (stereo not drawn): the GI50 in the assay with SW-620 was > 100 µM (inactive); with NCI-H23, 41.9 µM (inactive); in the assay with UACC-62, 98.4 µM (inactive); in the assay on UO-31 it was > 100 µM (inactive); with OVCAR-5, > 100 µM (inactive); with SF-539 it was > 100 µM (inactive). Further, the GI50 with HOP-62 was 49.4 µM (inactive); in the assay on SNB-75 it was 64.4 µM (inactive); in the assay on LOX IMVI, > 100 µM (inactive); with A549, > 100 µM (inactive); in the assay with SNB-19, > 100 µM (inactive); in the assay on NCI-H226, > 100 µM (inactive). The GI50 in the assay on EKVX was > 100 µM (inactive); in the assay on SF-268 it was 78.3 µM (inactive); with OVCAR-8 it was > 100 µM (inactive); in the assay on SK-OV-3 it was > 100 µM (inactive); in the assay on COLO 205, > 100 µM (inactive); with A498, > 100 µM (inactive).

For `c1ccc(C2N=C(c3ccccn3)C(c3ccccn3)=NC2c2ccccc2)cc1` (stereo not drawn), the GI50 in the assay with SW-620, in the assay with RXF 393, in the assay with NCI-H23, in the assay with UACC-62, in the assay on UO-31 and with OVCAR-5 was > 100 µM (inactive) throughout. Further, the GI50 in the assay with SF-539 was > 100 µM (inactive); with HOP-62, 20 µM (inactive); in the assay with LOX IMVI, > 100 µM (inactive); in the assay with A549 it was > 100 µM (inactive); with SNB-19, 19.1 µM (inactive); in the assay on NCI-H226, > 100 µM (inactive). In addition, the GI50 in the assay on EKVX, in the assay with SF-268, in the assay on OVCAR-8, in the assay on SK-OV-3, with COLO 205 and with A498 was > 100 µM (inactive) throughout.

`CCOC(=O)Nc1ccc(S(=O)(=O)OC)cc1.CCOC(=O)Nc1ccc(S(=O)(=O)OC)cc1.Cc1cn(C2CC(O)C(CO)O2)c(=O)[nH]c1=O`: the GI50 with SW-620 is 19.4 µM (inactive); in the assay on NCI-H23, > 100 µM (inactive); in the assay on UACC-62, > 100 µM (inactive); in the assay with UO-31 it was > 100 µM (inactive); in the assay with OVCAR-5, > 100 µM (inactive); in the assay with SF-539 it was > 100 µM (inactive). For the same compound, the GI50 in the assay with HOP-62 is > 100 µM (inactive); in the assay with SNB-75 it was > 100 µM (inactive); in the assay with LOX IMVI it was 18.3 µM (inactive); in the assay on A549, > 100 µM (inactive); in the assay on SNB-19 it was > 100 µM (inactive); in the assay with NCI-H226, > 100 µM (inactive). Besides, the GI50 in the assay with EKVX, in the assay with SF-268, with OVCAR-8, with SK-OV-3, in the assay on COLO 205 and with A498 was > 100 µM (inactive) each time.

As for `O=C1Cc2ccccc2N1c1c(Cl)cccc1Cl`, the GI50 is 38.6 µM (inactive) in the assay with SW-620; 52 µM (inactive) in the assay with NCI-H23; 40.2 µM (inactive) in the assay with UACC-62; 24.3 µM (inactive) with UO-31; > 100 µM (inactive) in the assay with OVCAR-5; 81.3 µM (inactive) in the assay on SF-539. The GI50 with HOP-62 is > 100 µM (inactive); in the assay with SNB-75, 27.7 µM (inactive); in the assay on LOX IMVI, 49.5 µM (inactive); with A549, 50.2 µM (inactive); in the assay with SNB-19, 79.1 µM (inactive); in the assay with NCI-H226 it was 37.9 µM (inactive). In addition, the GI50 is 63.5 µM (inactive) in the assay on EKVX; 71 µM (inactive) in the assay with SF-268; 93.3 µM (inactive) with OVCAR-8; 0.424 µM (active) in the assay with SK-OV-3; 42.3 µM (inactive) in the assay on COLO 205; 50.8 µM (inactive) in the assay with A498.
